The test system of the test is mice sarcoma S180. In words: Growth inhibition of S180 sarcoma in mice. Format: in vivo, Kunming healthy mice. Conditions: for in-vivo anti-tumor efficacy, statistical significance (in words): S180 sarcoma in mice, doses and routes of Table 3.
Setting [1] is: Mus musculus, S-180, mice, iv, read-out: Inhibition rate (%) S180 sarcoma.
The mark [2] stands for this setting: Mus musculus, S-180, mice, ip, read-out: Inhibition rate (%) S180 sarcoma.
Setting [3] is: Mus musculus, S-180, mice, ip, 200 mg/kg, read-out: Inhibition rate (%) S180 sarcoma.

This is an account of results in patent publication US20210292347A1, “DIHETEROCYCLIC TRIAZINONE NUCLEOSIDE ANALOGS AND THEIR USE FOR MEDICATION” (priority 2020, published 2021).

Take `CCCc1nn(C)c2c(=O)n(COC(CO)CO)nnc12` [Example 126, 3-(((1,3-dihydroxypropan-2-yl)oxy)methyl)-5-methyl-7-propyl-3H-pyrazolo[4,3-d][1,2,3]triazin-4(5H)-one]: under setting [1], the inhibition in vivo at 50 mg/kg is less than 20%.

As for `CN(C)CCC(=O)Nc1nn(C)c2c(=O)n(C3OC(CO)C(O)C3O)nnc12` (stereo not shown) [Example 25, N-(3-(3,4-dihydroxy-5-(hydroxymethyl)tetrahydrofuran-2-yl)-5-methyl-4-oxo-4,5-dihydro-3H-pyrazolo[4,3-d][1,2,3]triazin-7-yl)-3-(dimethylamino) propanamide], the “in-vivo anti-tumor efficacy, statistical significance (in words)” value was “statistically significant”. In addition, the “Inhibition rate (%) S180 sarcoma” value (mice, ip, 200 mg/kg) is listed as “++ (++ represent of Inhibition rate % <40)”.

`Cn1nc(C#N)c2nnn(C3OC(CO)C(O)C3O)c(=O)c21` (stereo not shown) [Example 26, 3-(3,4-dihydroxy-5-(hydroxymethyl)tetrahydrofuran-2-yl)-5-methyl-4-oxo-4,5-dihydro-3H-pyrazolo[4,3-d][1,2,3]triazine-7-carbonitrile]: the “in-vivo anti-tumor efficacy, statistical significance (in words)” value is on record as “statistically significant”. In addition, under “Mus musculus, S-180, mice, ip, 70 mg/kg, read-out: Inhibition rate (%) S180 sarcoma”, the inhibition in vivo at 70 mg/kg is less than 40%.

For the molecule `CCCc1nn(O)c2c(=O)n(C3OC(COC(C(=O)O)P(=O)(NC(C)C)NC(C)C)C(O)C3O)nnc12` (stereo not shown) [Example 103, 2-(bis(isopropylamino)phosphoryl)-2-((3,4-dihydroxy-5-(5-hydroxy-4-oxo-7-propyl-4,5-dihydro-3H-pyrazolo[4,3-d][1,2,3]triazin-3-yl)tetrahydrofuran-2-yl)methoxy)acetic acid], the inhibition in vivo at 100 mg/kg under setting [2] is less than 20%.

On to `CCCc1nn(CC(N)=O)c2c(=O)n(C3CSC(CO)O3)nnc12` (stereo not shown) [Example 95, 2-(3-(2-(hydroxymethyl)-1,3-oxathiolan-5-yl)-4-oxo-7-propyl-3H-pyrazolo[4,3-d][1,2,3]triazin-5(4H)-yl)acetamide], for which the “in-vivo anti-tumor efficacy, statistical significance (in words)” value is recorded as “statistically significant”. For the same molecule, the inhibition in vivo at 50 mg/kg under setting [1] is less than 40%.

Regarding `CCCc1nn(O)c2c(=O)n(C3OC(COC(C(=O)O)P(NC(C)C)OCC#N)C(O)C3O)nnc12` (stereo not shown) [Example 117, 2-((cyanomethoxy)(isopropylamino)phosphino)-2-((3,4-dihydroxy-5-(5-hydroxy-4-oxo-7-propyl-4,5-dihydro-3H-pyrazolo [4,3-d][1,2,3]triazin-3-yl)tetrahydrofuran-2-yl)methoxy)acetic acid], the “in-vivo anti-tumor efficacy, statistical significance (in words)” value is listed as “statistically significant”. Also, the inhibition in vivo at 15 mg/kg under setting [1] is less than 40%.

On to `CN(C)CCC(=O)Nc1nn(CC(N)=O)c2c(=O)n(COC(CO)CO)nnc12` [Example 129, N-(5-(2-amino-2-oxoethyl)-3-(((1,3-dihydroxypropan-2-yl)oxy)methyl)-4-oxo-4,5-dihydro-3H-pyrazolo[4,3-d][1,2,3]triazin-7-yl)-3-(dimethylamino) propanamide], for which the inhibition in vivo at 100 mg/kg under setting [2] was less than 20%.

Take `CCCn1nnc2c(=O)n(C3CCC(COC(C(=O)O)P(=O)(NC(C)C)NC(C)C)O3)nnc21` (stereo not shown) [Example 154, 2-(bis(isopropylamino)phosphoryl)-2-((5-(7-oxo-3-propyl-3H-[1,2,3]triazolo[4,5-d][1,2,3]triazin-6(7H)-yl)tetrahydrofuran-2-yl)methoxy)acetic acid]: the inhibition in vivo at 100 mg/kg under setting [2] is less than 20%.

Regarding `NC(=O)n1nc([N+](=O)[O-])c2nnn(C3OC(CO)C(O)C3O)c(=O)c21` (stereo not shown) [Example 60, 3-(3,4-dihydroxy-5-(hydroxymethyl)tetrahydrofuran-2-yl)-7-nitro-4-oxo-3H-pyrazolo[4,3-d][1,2,3]triazine-5(4H)-carboxamide], the “in-vivo anti-tumor efficacy, statistical significance (in words)” value is “statistically significant”. The inhibition in vivo at 15 mg/kg under setting [1] is less than 40%.

`NC(=O)Cn1nc([N+](=O)[O-])c2nnn(C3OC(CO)C(O)C3O)c(=O)c21` (stereo not shown) [Example 54, 2-(3-(3,4-dihydroxy-5-(hydroxymethyl)tetrahydrofuran-2-yl)-7-nitro-4-oxo-3H-pyrazolo [4,3-d][1,2,3]triazin-5(4H)-yl)acetamide]: the “in-vivo anti-tumor efficacy, statistical significance (in words)” value was “statistically significant”. Where the note is “Mus musculus, S-180, mice, ip, 150 mg/kg, read-out: Inhibition rate (%) S180 sarcoma”, the inhibition in vivo at 150 mg/kg was less than 40%.

With `CCCc1nn(CO)c2c(=O)n(C3OC(CO)C(O)C3O)nnc12` (stereo not shown) [Example 31, 3-(3,4-dihydroxy-5-(hydroxymethyl)tetrahydrofuran-2-yl)-5-(hydroxymethyl)-7-propyl-3H-pyrazolo[4,3-d][1,2,3]triazin-4(5H)-one], the “in-vivo anti-tumor efficacy, statistical significance (in words)” value is “statistically significant”. Besides, the inhibition in vivo at 100 mg/kg under setting [2] was less than 40%.

Take `CCCc1nn(C)c2c(=O)n(C3CSC(CO)O3)nnc12` (stereo not shown) [Example 91, 3-(2-(hydroxymethyl)-1,3-oxathiolan-5-yl)-5-methyl-7-propyl-3H-pyrazolo[4,3-d][1,2,3]triazin-4(5H)-one]: the “in-vivo anti-tumor efficacy, statistical significance (in words)” value is on record as “statistically significant”. The inhibition in vivo at 200 mg/kg under setting [3] was less than 40%.

In the case of `CCOP(=O)(OCC)C(Nc1nn(CO)c2c(=O)n(C3CCC(CO)O3)nnc12)C(=O)O` (stereo not shown) [Example 81, 2-(diethoxyphosphoryl)-2-((5-(hydroxymethyl)-3-(5-(hydroxymethyl)tetrahydrofuran-2-yl)-4-oxo-4,5-dihydro-3H-pyrazolo[4,3-d][1,2,3]triazin-7-yl)amino)acetic acid], the “in-vivo anti-tumor efficacy, statistical significance (in words)” value was “statistically significant”. Further, the inhibition in vivo at 100 mg/kg under setting [2] was less than 40%.

For `NC(=O)n1nc(N)c2nnn(C3OC(CO)C(O)C3O)c(=O)c21` (stereo not shown) [Example 56, 7-amino-3-(3,4-dihydroxy-5-(hydroxymethyl)tetrahydrofuran-2-yl)-4-oxo-3H-pyrazolo[4,3-d][1,2,3]triazine-5(4H)-carboxamide], the “in-vivo anti-tumor efficacy, statistical significance (in words)” value is “statistically significant”. In addition, the inhibition in vivo at 100 mg/kg under setting [2] was less than 40%.

On to `COc1ccc(C(=O)Nc2nn(C)c3c(=O)n(C4OC(CO)C(O)C4O)nnc23)cc1` (stereo not shown) [Example 29, N-(3-(3,4-dihydroxy-5-(hydroxymethyl)tetrahydrofuran-2-yl)-5-methyl-4-oxo-4,5-dihydro-3H-pyrazolo[4,3-d][1,2,3]triazin-7-yl)-4-methoxybenzamide], for which the inhibition in vivo at 15 mg/kg under setting [1] is less than 20%.

Regarding `NC(=O)n1nc(N2CCCCC2)c2nnn(C3OC(CO)C(O)C3O)c(=O)c21` (stereo not shown) [Example 59, 3-(3,4-dihydroxy-5-(hydroxymethyl)tetrahydrofuran-2-yl)-4-oxo-7-(piperidin-1-yl)-3H-pyrazolo[4,3-d][1,2,3]triazine-5(4H)-carboxamide], under setting [1], the inhibition in vivo at 50 mg/kg is less than 20%.

Turning to `CCCc1nn(O)c2c(=O)n(C3CSC(CO)O3)nnc12` (stereo not shown) [Example 88, 5-hydroxy-3-(2-(hydroxymethyl)-1,3-oxathiolan-5-yl)-7-propyl-3H-pyrazolo[4,3-d][1,2,3]triazin-4(5H)-one], the “in-vivo anti-tumor efficacy, statistical significance (in words)” value is “statistically significant”. For the setting “Mus musculus, S-180, mice, ip, 400 mg/kg, read-out: Inhibition rate (%) S180 sarcoma”, the inhibition in vivo at 400 mg/kg was less than 40%.

`CCCn1nnc2c(=O)n(C3OC(CO)C(O)C3O)nnc21` (stereo not shown) [Example 151, 6-(3,4-dihydroxy-5-(hydroxymethyl)tetrahydrofuran-2-yl)-3-propyl-3H-[1,2,3]triazolo[4,5-d][1,2,3]triazin-7(6H)-one]: the inhibition in vivo at 200 mg/kg under setting [3] is less than 20%.

Turning to `CCCc1nn(C(=N)N)c2c(=O)n(C3OC(CO)C(O)C3O)nnc12` (stereo not shown) [Example 68, 3-(3,4-dihydroxy-5-(hydroxymethyl)tetrahydrofuran-2-yl)-4-oxo-7-propyl-3H-pyrazolo [4,3-d][1,2,3]triazine-5(4H)-carboximidamide], the “in-vivo anti-tumor efficacy, statistical significance (in words)” value is listed as “statistically significant”. For the same molecule, the inhibition in vivo at 20 mg/kg (Mus musculus, S-180, mice, iv, 20 mg/kg, read-out: Inhibition rate (%) S180 sarcoma) is less than 40%.

For the molecule `CCCc1nn(C)c2c(=O)n(C3OC(COC(C(=O)O)P(=O)(NC(C)C)NC(C)C)C(O)C3O)nnc12` (stereo not shown) [Example 106, 2-(bis(isopropylamino)phosphoryl)-2-((3,4-dihydroxy-5-(5-methyl-4-oxo-7-propyl-4,5-dihydro-3H-pyrazolo [4,3-d][1,2,3]triazin-3-yl)tetrahydrofuran-2-yl)methoxy)acetic acid], the inhibition in vivo at 50 mg/kg under setting [1] was less than 20%.

On to `CCCc1nn(C(N)=O)c2c(=O)n(C3CSC(CO)O3)nnc12` (stereo not shown) [Example 97, 3-(2-(hydroxymethyl)-1,3-oxathiolan-5-yl)-4-oxo-7-propyl-3H-pyrazolo[4,3-d][1,2,3]triazine-5(4H)-carboxamide], for which the “in-vivo anti-tumor efficacy, statistical significance (in words)” value was “statistically significant”. The inhibition in vivo at 100 mg/kg under setting [2] is less than 40%.

In the case of `COc1ccc(C(=O)Nc2nn(O)c3c(=O)n(C4OC(CO)C(O)C4O)nnc23)cc1` (stereo not shown) [Example 20, N-(3-(3,4-dihydroxy-5-(hydroxymethyl)tetrahydrofuran-2-yl)-5-hydroxy-4-oxo-4,5-dihydro-3H-pyrazolo[4,3-d][1,2,3]triazin-7-yl)-4-methoxybenzamide], the inhibition in vivo at 200 mg/kg under setting [3] is less than 20%.

As to `N#Cc1nn(O)c2c(=O)n(C3OC(CO)C(O)C3O)nnc12` (stereo not shown) [Example 17, 3-(3,4-dihydroxy-5-(hydroxymethyl)tetrahydrofuran-2-yl)-5-hydroxy-4-oxo-4,5-dihydro-3H-pyrazolo [4,3-d][1,2,3]triazine-7-carbonitrile], the “in-vivo anti-tumor efficacy, statistical significance (in words)” value is “statistically significant”. For the same molecule, the inhibition in vivo at 25 mg/kg (Mus musculus, S-180, mice, iv, 25 mg/kg, read-out: Inhibition rate (%) S180 sarcoma) was less than 40%.
